# Results from patent publication US7799824B2, “Quaternary salt CCR2 antagonists” (OraPharma, Inc., priority 2004, dated 2010).
# Target: T1, CCR2 (Homo sapiens, UniProt P41597)
# T1 sequence (P41597 1-360 isoform P41597-2): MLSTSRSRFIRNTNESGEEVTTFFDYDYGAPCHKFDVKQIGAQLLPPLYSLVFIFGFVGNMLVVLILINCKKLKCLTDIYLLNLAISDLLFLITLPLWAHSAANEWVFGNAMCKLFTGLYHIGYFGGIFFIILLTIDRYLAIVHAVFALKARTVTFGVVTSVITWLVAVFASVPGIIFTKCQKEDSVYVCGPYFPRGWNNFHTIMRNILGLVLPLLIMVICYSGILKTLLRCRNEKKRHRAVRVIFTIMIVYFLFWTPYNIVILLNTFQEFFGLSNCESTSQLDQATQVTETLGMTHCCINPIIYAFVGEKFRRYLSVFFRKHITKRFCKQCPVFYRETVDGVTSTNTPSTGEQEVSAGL
# Assay: MCP-1 Receptor Binding Assay in THP-1 Cells
# Details: MCP-1 binding to CCR2; test concentration of 25 μM, unless indicated otherwise; read-out: % Inhibition Ligand Binding
# Protocol: THP-1 cells were obtained from American Type Culture Collection (Manassas, Va., USA). […] The cell density was maintained between 0.5×10^6 cells/mL.
# Cells were then harvested onto a filter plate, dried, and 20 μL of Microscint 20 was added to each well. Plates were counted in a TopCount NXT, Microplate Scintillation & Luminescence Counter (Perkin-Elmer Life Sciences, Inc. Boston, Mass.). Blank values (buffer only) were subtracted from all values and drug treated values were compared to vehicle treated values. 1 μM cold MCP-1 was used for nonspecific binding.
row,inhibition at 25 µM,Compound
1,-18%,"C[N+](C)(Cc1ccc(CNC(=O)C2=Cc3cc(Br)ccc3CCC2)cc1)C1CCOCC1 [Cpd 142, (4-{[(3-bromo-8,9-dihydro-7H-benzocycloheptene-6-carbonyl)-amino]-methyl}-benzyl)-dimethyl-(tetrahydro-pyran-4-yl)-ammonium iodide]"
2,36%,"C[N+]1(Cc2ccc(NC(=O)C3=Cc4ccccc4CCC3)cc2)CCCC1 [Cpd 145, 1-{4-[(8,9-dihydro-7H-benzocycloheptene-6-carbonyl)-amino]-benzyl}-1-methyl-pyrrolidinium iodide]"

# Same assay, conditions: THP-1 cells, 0.5 nM 125I labeled MCP-1, 2 hours at 30° C.; read-out: Mean Ligand Binding IC50 (inhibition of MCP-1 binding to CCR2)
row,IC50,Compound
1,340 nM,"C[N+](C)(Cc1ccc(NC(=O)C=Cc2cccc(Br)c2)cc1)C1CCOCC1 [Cpd 43, {4-[3-(3-bromo-phenyl)-acryloylamino]-benzyl}-dimethyl-(tetrahydro-pyran-4-yl)-ammonium iodide]"
2,6000 nM,"Cc1ccc(-c2cccc(C(=O)Nc3ccc(C[N+](C)(C)C4CCCCC4)cc3)c2)cc1 [Cpd 86, cyclohexyl-dimethyl-{4-[(4′-methyl-biphenyl-3-carbonyl)-amino]-benzyl}-ammonium iodide]"
3,8800 nM,"C[N+](C)(Cc1ccc(NC(=O)c2sc3ccccc3c2Cl)cc1)C1CCCCC1 [Cpd 178, {4-[(3-chloro-benzo[b]thiophene-2-carbonyl)-amino]-benzyl}-cyclohexyl-dimethyl-ammonium iodide]"
4,910 nM,"C[N+](C)(Cc1ccc(NC(=O)C2=Cc3c(ccc4ccccc34)OC2)cc1)C1CCOCC1 [Cpd 135, {4-[(3H-benzo[f]chromene-2-carbonyl)-amino]-benzyl}-dimethyl-(tetrahydro-pyran-4-yl)-ammonium iodide]"
5,11900 nM,"C[N+]1(Cc2ccc(CNC(=O)C=Cc3cccc(Br)c3)cc2)CCCCC1 [Cpd 49, 1-(4-{[3-(3-bromo-phenyl)-acryloylamino]-methyl}-benzyl)-1-methyl-piperidinium iodide]"
6,9800 nM,"C[N+]1(Cc2ccc(NC(=O)C3=Cc4c(ccc5ccccc45)OC3)cc2)CCOCC1 [Cpd 139, 4-{4-[(3H-benzo[f]chromene-2-carbonyl)-amino]-benzyl}-4-methyl-morpholin-4-ium iodide]"
7,50 nM,"Cc1cc(Cl)cc2c1OCC(C(=O)Nc1ccc(C[N+](C)(C)C3CCOCC3)cc1)=C2 [Cpd 115, {4-[(6-chloro-8-methyl-2H-chromene-3-carbonyl)-amino]-benzyl}-dimethyl-(tetrahydro-pyran-4-yl)-ammonium iodide]"
8,2700 nM,"C[N+]1(Cc2ccc(NC(=O)c3ccc(Cl)c(Cl)c3)cc2)CCCC1 [Cpd 51, 1-[4-(3,4-dichloro-benzoylamino)-benzyl]-1-methyl-pyrrolidinium iodide]"
9,60 nM,"Cc1cc(Cl)cc2c1OCC(C(=O)Nc1ccc(C[N+](C)(C)C3CCCCC3)cc1)=C2 [Cpd 114, {4-[(6-chloro-8-methyl-2H-chromene-3-carbonyl)-amino]-benzyl}-cyclohexyl-dimethyl-ammonium iodide]"
10,1700 nM,"Cc1cccc(C=CC(=O)Nc2ccc(C[N+](C)(C)C3CCOCC3)cc2)c1 [Cpd 66, dimethyl-(tetrahydro-pyran-4-yl)-[4-(3-m-tolyl-acryloylamino)-benzyl]-ammonium iodide]"
11,110 nM,"C[N+](C)(Cc1ccc(NC(=O)C2=Cc3cc(Cl)ccc3OC2)cc1)C1CCOCC1 [Cpd 96, {4-[(6-chloro-2H-chromene-3-carbonyl)-amino]-benzyl}-dimethyl-(tetrahydro-pyran-4-yl)-ammonium iodide]"
12,1600 nM,"CCC[N+](C)(Cc1ccc(NC(=O)c2ccc(Cl)c(Cl)c2)cc1)C1CCOCC1 (stereo not shown) [Cpd 22, [4-(3,4-dichloro-benzoylamino)-benzyl]-methyl-propyl-(tetrahydro-pyran-4-yl)-ammonium iodide]"
13,1000 nM,"C[N+](C)(Cc1ccc(NC(=O)C2=Cc3cc(Cl)c(Cl)cc3OCC2)cc1)C1CCCCC1 [Cpd 168, cyclohexyl-{4-[(7,8-dichloro-2,3-dihydro-benzo[b]oxepine-4-carbonyl)-amino]-benzyl}-dimethyl-ammonium iodide]"
14,710 nM,"C[N+](C)(Cc1ccc(NC(=O)C2=Cc3ccccc3CCC2)cc1)C1CCCCC1 [Cpd 146, cyclohexyl-{4-[(8,9-dihydro-7H-benzocycloheptene-6-carbonyl)-amino]-benzyl}-dimethyl-ammonium iodide]"
15,14600 nM,"C[N+](C)(Cc1ccc(NC(=O)C=Cc2cccc(Br)c2)cc1)C1CCSCC1 [Cpd 44, {4-[3-(3-bromo-phenyl)-acryloylamino]-benzyl}-dimethyl-(tetrahydro-thiopyran-4-yl)-ammonium iodide]"
16,170 nM,"C[N+](C)(Cc1ccc(NC(=O)c2cc3ccccc3s2)cc1)C1CCCCC1 [Cpd 177, {4-[(benzo[b]thiophene-2-carbonyl)-amino]-benzyl}-cyclohexyl-dimethyl-ammonium iodide]"
17,750 nM,"COc1ccc(C(=O)Nc2ccc(C[N+](C)(C)C3CCOCC3)cc2)cc1Cl [Cpd 27, [4-(3-chloro-4-methoxy-benzoylamino)-benzyl]-dimethyl-(tetrahydro-pyran-4-yl)-ammonium iodide]"
18,8100 nM,"C[N+](C)(Cc1ccc(NC(=O)c2ccnc(Cl)c2)cc1)C1CCOCC1 [Cpd 173, {4-[(2-chloro-pyridine-4-carbonyl)-amino]-benzyl}-dimethyl-(tetrahydro-pyran-4-yl)-ammonium iodide]"
19,600 nM,"COc1ccc2c(c1)OCC(C(=O)Nc1ccc(C[N+](C)(C)C3CCCCC3)cc1)=C2 [Cpd 128, cyclohexyl-{4-[(7-methoxy-2H-chromene-3-carbonyl)-amino]-benzyl}-dimethyl-ammonium iodide]"
20,80 nM,"C[N+](C)(Cc1ccc(NC(=O)C2=Cc3c(ccc4ccccc34)OC2)cc1)C1CCCCC1 [Cpd 137, {4-[(3H-benzo[f]chromene-2-carbonyl)-amino]-benzyl}-cyclohexyl-dimethyl-ammonium iodide]"
21,400 nM,"C[N+](C)(Cc1ccc(NC(=O)c2ccc(Cl)c(C(F)(F)F)c2)cc1)C1CCOCC1 [Cpd 33, [4-(4-chloro-3-trifluoromethyl-benzoylamino)-benzyl]-dimethyl-(tetrahydro-pyran-4-yl)-ammonium iodide]"
22,30 nM,"Cc1cc(Cl)cc2c1OCC(C(=O)Nc1ccc(C[N+](C)(C)C3CCSC3)cc1)=C2 (stereo not shown) [Cpd 120, {4-[(6-chloro-8-methyl-2H-chromene-3-carbonyl)-amino]-benzyl}-dimethyl-(tetrahydro-thiophen-3-yl)-ammonium iodide]"
23,270 nM,"C[N+](C)(Cc1ccc(NC(=O)C2=Cc3cc(Cl)ccc3OC2)cc1)C1CCCCC1 [Cpd 98, {4-[(6-chloro-2H-chromene-3-carbonyl)-amino]-benzyl}-cyclohexyl-dimethyl-ammonium iodide]"
24,5500 nM,"C[N+](C)(Cc1ccc(CNC(=O)c2cccc(Br)c2)cc1)C1CCCCC1 [Cpd 2, {4-[(3-bromo-benzoylamino)-methyl]-benzyl}-cyclohexyl-dimethyl-ammonium iodide]"
25,300 nM,"C[N+](C)(Cc1ccc(NC(=O)C2=Cc3cc(C(F)(F)F)ccc3OC2)cc1)C1CCSC1 (stereo not shown) [Cpd 130, dimethyl-(tetrahydro-thiophen-3-yl)-{4-[(6-trifluoromethyl-2H-chromene-3-carbonyl)-amino]-benzyl}-ammonium iodide]"
26,1200 nM,"C[N+](C)(Cc1cccc(NC(=O)C=Cc2ccc(Cl)c(Cl)c2)c1)C1CCCCC1 [Cpd 83, cyclohexyl-{3-[3-(3,4-dichloro-phenyl)-acryloylamino]-benzyl}-dimethyl-ammonium iodide]"
